Several values for one entry are separate records, joined by “and”; a condition that tells them apart may be missing. Equal entries are not always repeated. Entries after “also recorded” stand apart in the source; their conditions may differ. Where a SMILES comes first, the peptide text is derived from it. Bridges are numbered along the chain shown (N, C = ends). [ ]: non-standard residue; d: D form. hArg = N=C(N)NCCCC[C@H](N)C(=O)O; Mpa = O=C(O)CCS
What was measured:
washed platelets [1] = assay: Light transmission aggregometry of washed platelets stimulated with serum from patients with VITT; type: cell-based, human
Experimental: Washed platelets were prepared from citrated whole blood as described in Nicolson et al., Low-dose BTK inhibitors selectively block platelet activation by CLEC-2, Haematologica 106(1):208-19 (2021). Briefly; citrated blood was taken from healthy, drug-free volunteers and mixed (1:10, v/v) with acid citrate dextrose and centrifuged (200×g, 20 minutes, RT) to produce platelet rich plasma. Platelet rich plasma was then centrifuged (1000×g, 10 minutes, RT) in the presence of 0.2 μg/mL prostacyclin. The platelet pellet was resuspended in modified-Tyrode's-HEPES buffer, prepared as described in Nicolson et al., acid citrate dextrose and 0.2 μg/mL prostacyclin and centrifuged (1000×g, 10 minutes, RT). Platelet pellet was resuspended in modified-Tyrode's-HEPES buffer to a concentration of 2×10^8/mL and allowed to rest for 30 minutes prior to use.
Aggregation was measured in washed platelets (2×10^8/mL) under stirring conditions (1200 rpm) at 37° C. using a light transmission aggregometer (Model 700, ChronoLog) for 20 minutes following stimulation with serum (1:15, v/v). Washed platelets were pre-incubated with IV.3 F(ab) for 5 minutes or with inhibitors for 10 minutes prior to stimulation with serum. Modified-Tyrode's-HEPES buffer or dimethyl sulfoxide (DMSO) was used as vehicle.

washed platelets [2] = assay: Light transmission aggregometry, aggregation to collagen; type: cell-based, human; conditions: 3 μg/mL collagen; results not shown
Experimental: […] Modified-Tyrode's-HEPES buffer or dimethyl sulfoxide (DMSO) was used as vehicle.
We tested if the Btk inhibitor rilzabrutinib (rilzabrutinib powder prepared in DMSO (final 0.02% DMSO) to achieve a concentration of 0.5 μM) could prevent platelet aggregation in patient sera.

251-kinase panel = 251-kinase panel selectivity; type: biochemical; conditions: 1 μM
[3] = Pharmacokinetics in humans after oral administration; type: in vivo, human
platelets [4] = assay: Normal platelet function in vitro; type: cell-based
[5] = Bleeding in thrombocytopenic patients; type: in vivo, human
[6] = in comparison to first and second generation BTKi; cited from earlier work
BTK enzyme = BTK enzyme (Homo sapiens, UniProt Q06187); conditions: healthy volunteers; doses which provide 100% occupancy of the BTK enzyme; cited from earlier work
platelets [7] = assay: Heparin Induced Platelet Activation (HIPA) assay (HITAlert kit); type: cell-based, human
Text: See, e.g., Greinacher et al., Thrombotic thrombocytopenia after ChAdOx1 nCov-19 vaccination, N Engl J Med, doi:10.1056/NEJMoa2104840 (2021); Schlutz et al., Thrombosis and thrombocytopenia after ChAdox1 nCoV-19 vaccination, N Engl J Med, doi:10.1056/NEJMoa2104882 (2021). Cross-sectional brain imaging verified the presence of cerebral venous sinus thrombosis (CVST) and intracerebral haemorrhage in three patients, and ischemic stroke caused by internal carotid artery thrombus in one patient.

platelets via FcγRIIA = conditions: both low and high concentrations of heparin; cited from earlier work
[8] = human, in vivo; cited from earlier work
[9] = Phase 2 trial; cited from earlier work
[10] = HITAlert at presentation, serum of the individual VITT patient, normal range ≤ 8%

Chain of BTK enzyme (Q06187 whole entry): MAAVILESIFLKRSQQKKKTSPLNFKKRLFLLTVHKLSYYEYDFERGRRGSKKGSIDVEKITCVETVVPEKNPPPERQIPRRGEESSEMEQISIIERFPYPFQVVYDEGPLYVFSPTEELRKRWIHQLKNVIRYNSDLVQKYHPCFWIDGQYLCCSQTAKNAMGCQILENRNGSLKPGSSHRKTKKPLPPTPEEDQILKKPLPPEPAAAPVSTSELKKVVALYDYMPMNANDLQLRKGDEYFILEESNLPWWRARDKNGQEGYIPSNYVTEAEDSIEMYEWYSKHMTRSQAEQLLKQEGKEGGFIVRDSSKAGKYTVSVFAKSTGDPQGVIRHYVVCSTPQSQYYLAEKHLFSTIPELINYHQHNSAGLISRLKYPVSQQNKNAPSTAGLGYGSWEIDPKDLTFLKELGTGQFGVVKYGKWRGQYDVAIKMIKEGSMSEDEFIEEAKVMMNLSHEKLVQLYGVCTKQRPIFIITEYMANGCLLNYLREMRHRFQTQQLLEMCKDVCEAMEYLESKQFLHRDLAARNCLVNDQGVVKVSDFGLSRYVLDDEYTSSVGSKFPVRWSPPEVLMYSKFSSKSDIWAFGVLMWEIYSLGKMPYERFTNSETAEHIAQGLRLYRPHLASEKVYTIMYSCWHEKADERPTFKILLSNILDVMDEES

Molecule: CC(C)(C=C(C#N)C(=O)N1CCC[C@@H](n2nc(-c3ccc(Oc4ccccc4)cc3F)c3c(N)ncnc32)C1)N1CCN(C2COC2)CC1 [Compound (I), (R)-2-[3-[4-amino-3-(2-fluoro-4-phenoxy-phenyl)pyrazolo[3,4-d]pyrimidin-1-yl]piperidine-1-carbonyl]-4-methyl-4-[4-(oxetan-3-yl)piperazin-1-yl]pent-2-enenitrile]
- platelet aggregation induced by serum from patients with VITT (washed platelets [1]; rilzabrutinib 0.5 μM, 10 minutes pre-incubation, washed platelets 2×10^8/mL, serum 1:15 v/v, n=7): prevented platelet aggregation; also recorded: blocks platelet aggregation
- aggregation to collagen (washed platelets [2]): fully inhibited
- number of kinases with >90% inhibition (251-kinase panel): 6 kinases
- absorption [3]: rapidly absorbed
- half-life ([3]; human, in vivo): 3 to 4 h
- impact on normal platelet function (platelets [4]): no impact
- association with bleeding [5]: has not been associated with bleeding
- cross-reactivity with other molecules [6]: minimal cross-reactivity

Molecule: N=C(N)c1ccc2cc(OC(=O)c3ccc(N=C(N)N)cc3)ccc2c1 [FUT-175]
- effect on aggregation to patient sera (complement inhibitors) (washed platelets [1]; data not shown): minor effects

Molecule: C=CC(=O)Nc1cccc(Nc2nc(Nc3ccc(OCCOC)cc3)ncc2F)c1 [CC-292, spebrutinib]
- tolerability (BTK enzyme): well tolerated

Molecule: heparin
- aggregation to VITT patient sera, high heparin (washed platelets [1]; high heparin concentration (100 U/mL)): blocked aggregation
- aggregation to VITT patient sera, low heparin (washed platelets [1]; low (0.2 U/mL) concentration of heparin, 7 patients): prevented (5 of 7 patients) or delayed (2 of 7 patients)
- Platelet activation with serum and excess heparin (platelets [7]; [10]): 0.64% and 3.68% and 1.43% and 4.38%
- Platelet activation with serum and heparin (platelets [7]; [10]): 18.53% and 18% and 36.5% and 22.63%
- platelet activation by patient sera, high concentration of heparin (platelets [7]; sera of four patients tested): blocked
- platelet activation by patient sera, low concentration of heparin (platelets [7]; sera of four patients tested): reduced
- platelet activation by immune complexes (platelets via FcγRIIA): blocked
- deleterious effect in 1 patient with VITT [8]: without deleterious effect

Molecule: C=CC(=O)N1CCC(CNc2ncnc(N)c2-c2ccc(Oc3ccccc3)cc2)CC1 [evobrutinib]
- efficacy for multiple sclerosis [9]: demonstrated efficacy

Molecule: N=C(N)NCCCC[C@@H]1NC(=O)CCSSC[C@@H](C(N)=O)NC(=O)[C@@H]2CCCN2C(=O)[C@H](Cc2c[nH]c3ccccc23)NC(=O)[C@H](CC(=O)O)NC(=O)CNC1=O [eptifibatide] ([Mpa][hArg]GDWPC-NH2; disulfide 1-7)
- response (aggregation) to patient sera (washed platelets [1]; eptifibatide 9 μM, data not shown): inhibited

Molecule: CC[C@H](C)[C@H](N)C(=O)N[C@H]1CSSC[C@@H](C(=O)N[C@H](C(N)=O)[C@@H](C)O)NC(=O)[C@H](CCCN=C(N)N)NC(=O)[C@H](Cc2cnc[nH]2)NC(=O)[C@H](Cc2cnc[nH]2)NC(=O)CNC(=O)[C@H](Cc2c[nH]c3ccccc23)NC(=O)[C@H](CC(=O)O)NC(=O)[C@H](CCC(N)=O)NC(=O)[C@H](C(C)C)NC(=O)[C@H](C(C)C)NC1=O [compstatin]
- effect on aggregation to patient sera (complement inhibitors) (washed platelets [1]; data not shown): minor effects

B1: PF4: platelet factor 4 (protein, UniProt P02776 32-101, looked up)
Platelet factor 4: EAEEDGDLQCLCVKTTSQVRPRHITSLEVIKAGPHCPTAQLIATLKNGRKICLDLQAPLYKKIIKKLLES
- enhancement of partial aggregation to patient 2 serum (washed platelets [1]; 10 μg/mL PF4, data not shown): No enhancement

— US20240207277A1, “Methods For Treating Drug and Vaccine Induced Immune Thrombocytopenia by Administering Specific Compounds” (Principia Biopharma Inc., priority 2021, published 2024)
